The source of these data is article PMC8369502, “High-Throughput Drug Screening System Based on Human Induced Pluripotent Stem Cell-Derived Atrial Myocytes ∼ A Novel Platform to Detect Cardiac Toxicity for Atrial Arrhythmias” (Frontiers in Pharmacology, 2021).

As usually defined, the IC50 is the concentration needed to halve the response being measured.

Data set [1] relates to ventricular myocytes of guinea pigs. On the set-up: method as in Delaunois et al., 2015. Particulars: 75 μM; ref Delaunois et al., 2015; cited from earlier work.
Data set [2] concerns cardiac Na+ channel (Nav1.5). To be noted: ref Harmer et al., 2011; read-out: IC50 cardiac Na+ channel (Nav1.5); cited from earlier work.
In data set [3] the test system is AM (RA-treated hiPS-CMs, atrial-like). Briefly: High-throughput membrane potential recording (FluoVolt, FDSS/μCell) in AM. The data set is classed as cell-based, human. To be noted: for cessation of beating (cases): count of cases; for Rising Slope / Beat Rate / Falling Slope / PWD80cF: % change from value before compound addition, 10 min after addition (Bay K 8644: 3 min); for rising slope of membrane potential (in words) / beating rate (in words) / falling slope of membrane potential (in words): concentration range as stated in the source. How it is done: (§1) Using a high-throughput screening system (FDSS/μCell), we assessed the drug toxicity of several experimental drugs on hiPS-derived atrial myocytes as well as control hiPS-derived cardiomyocytes. Membrane potential was used as one of the parameters during the assessment.
(§2) After purification, hiPS-derived cardiomyocytes were plated in 96-well plates for downstream drug response assessment using FluoVolt™ Membrane Potential Kit. […] The comparison of variance in the response of drug administration in CT and AM was represented by the percentage of changes based on their baseline values respectively.
(§3) FluoVolt™ Membrane Potential Kit (ThermoFisher […], F10488, Massachusetts, United States) was used to measure membrane potentials. The basic procedure was performed in accordance with the manufacturer’s instructions. […] MP were recorded at excitation and emission stages at wavelengths of 470 and 540 nm, respectively. […] Stock solutions of the test compounds were prepared in 100% DMSO, and serially diluted 1/40 into compound plates for testing (0.5% DMSO was the maximum concentration in all wells). The compounds were automatically pipetted from the compound plate, and 12 μL was loaded in the wells already containing the cells with 48 μL of media. Recording data were analyzed using Waveform Analysis of Cardiomyocyte Software (Ver.1.2.1J, Hamamatsu Photonics K.K.). Data values for a well were averaged from waveforms that arose during 30 s. The beat rate (BR; beats per minute), waveform amplitude (AMP), and duration at 30, 50, and 80% of decay (PWD30, PWD 50, and PWD 80, respectively) were used as evaluation parameters. PWDs were corrected using the Fridericia formula. PWD30-80 was calculated as the difference between PWD80 and PWD30. Each parameter was calculated as percentage change (%) from the value before test compound addition.

The test system of data set [4] is CT (control hiPS-CMs without RA, ventricular-like). Briefly: High-throughput membrane potential recording (FluoVolt, FDSS/μCell) in CT. The data set is classed as cell-based, human. Particulars: for Falling Slope / PWD30cF / PWD80cF / Rising Slope: % change from value before compound addition, 10 min after addition (Bay K 8644: 3 min); for beating rate (in words) / falling slope of membrane potential (in words) / rising slope of membrane potential (in words): concentration range as stated in the source. How it is done: as §1, §2, §3

The test system of data set [5] is hiPS-derived cardiomyocytes. Briefly: Cardiac differentiation of hiPSCs with RA, immunostaining (cTnT, MLC-2a, MLC-2v). In kind it is cell-based, human. How it is done:
Undifferentiated hiPSCs were maintained in AK02 medium for 2–3 days until 80% confluency was obtained. To obtain highly purified cardiomyocytes, metabolic selection was performed during post-differentiation, from day 15–26. Cardiomyocyte proportion was quantified by immunostaining with cardiac troponin-T (cTnT).
To further evaluate the gene expression of cardiac subtypes in the control hiPS-CMs (CT) and the RA-treated hiPS-CMs (AM), the cells were co-stained with myosin light chain 2a (MLC-2a: atrial isoform) and myosin light chain 2v (MLC-2v: ventricular isoform) (Supplementary Figure 1). […] In AM (MLC-2a 83.4 ± 0.63%), most cTnT-positive cells were co-positive for MLC-2a, however, very few cTnT-positive cells were found co-positive for MLC-2v (MLC-2v 14.0 ± 2.82%) (Figures 1B, C).
The hiPSCs were enzymatically dispersed and maintained until 80% confluence with StemFit® AK02N containing 10 µM Y-27632 (Wako, 036-24023). The next day, the culture medium was changed to StemFit® AK02N without Y-27632, which was maintained until the next passage. hiPSCs were seeded on a dish coated with Geltrex LDEV-Free Reduced Growth Factor (ThermoFisher […]) at 1% concentration in PBS. When the seeded cells reached 80% confluency (day-1), the culture medium was changed to StemFit® AK02N containing Matrigel® (Growth Factor Reduced, Corning, 354,230) at 1% concentration for 24 h. On day0, the culture medium was changed to Medium A (PSC Cardiomyocyte Differentiation Kit, ThermoFisher […]) containing Matrigel for 48 h. On day2, the culture medium was changed to Medium B (PSC Cardiomyocyte Differentiation Kit, ThermoFisher […]) for 48 h. On day4, the culture medium was changed to cardiomyocyte maintenance medium (PSC Cardiomyocyte Differentiation Kit, ThermoFisher […]) supplemented with or without 0.7 μM RA (Sigma Aldrich, R2625) for 72 h. On day 7, the culture medium was changed to cardiomyocyte maintenance medium, and change the medium every 2 days. The cells typically started spontaneous beating around 10 days of initiation of the differentiation protocol. Purification of cardiomyocytes was performed by using a non-glucose medium supplemented with 4 mM lactic acid for 4days/time, performed 2 times (from day 14 to day 18, and from day 21 to day 25), between the 2 times of purifying application, the medium was changed to cardiomyocyte maintenance medium for 72 h (from day 18 to day 21). After purification, the culture was continued in the cardiomyocyte maintenance medium until the functional analysis.
hiPSC-derived cardiomyocytes were fixed with 4% PFA and permeabilized with 0.1% Triton-X in PBS (-) for 15 min at 4°C. […] Fluorescence images were obtained using Operetta high content imaging system (PerkinElmer, Japan) and analyzed using Harmony analysis software (PerkinElmer, Japan).

The structures appear in SMILES notation. Values joined by “and” are separate entries in the source; they are usually repeats but may differ in a detail not shown here. Identical values can stand only once. “Also recorded” adds a separate entry of the source.

In the case of `NC(=O)N1c2ccccc2C=Cc2ccccc21` [Carbamazepine], in data set [1], the APD50 result was “shortening”, the APD90 result is “shortening” and the Vmax entry is “decrease”. For the same molecule, the IC50 in data set [2] is 152 µM. In data set [3], the “other parameters of membrane potential (in words)” value is given as “no obvious change was observed”, the “Rising Slope” value is “↓” and the “rising slope of membrane potential (in words)” value (“rising slope … (in words)” for short) was “decrease”. Besides, in data set [3] (30 μM), the “incidence of arrhythmia-like waveforms: arrest” value (“incidence … arrest” for short) is recorded as 50% and the “cessation of beating (cases)” value is recorded as “half the cases”. For the same molecule, in data set [3] (100 μM), the “incidence … arrest” value amounted to 83% and the “cessation of beating (cases)” value was 5 of 6. Also, in data set [4], the “amplitude of membrane potential (in words)” value is “decrease”, the “concentration at which cessation of beating was elicited” value was “above 30 μM”, the “concentration at which irregular beating or EAD appeared” value is listed as “above 30 μM” and the “membrane potential duration (in words)” value is given as “shortened”. In addition, in data set [4], the “Falling Slope” value is “↑”, the PWD30cF entry is “↓”, the PWD80cF entry is “↓” and the “Rising Slope” value is recorded as “↓”. In data set [4], the “beating rate (in words)” value was “decrease”, the “falling slope of membrane potential (in words)” value (from here on “falling slope … (in words)”) was “increase” and the “rising slope … (in words)” value is reported as “decrease”. In data set [4] (30 μM), the “incidence … arrest” value was found to be 8% and the “incidence of arrhythmia-like waveforms: irregular beat” value (shortened to “incidence … irregular beat”) was 25%. In data set [4] (100 μM), the “incidence … arrest” value is 92% and the “incidence … irregular beat” value was found to be 8%. Moreover, in data set [4] (100 μM, count of cases), the “cessation of beating (cases)” value was 11 of 12.

For `Cc1cccc(CCN2CCC(C(=O)c3ccc(NS(C)(=O)=O)cc3)CC2)n1` [E-4031], in data set [3], the “PWD30-80 (in words)” value is recorded as “prolonged; also recorded: dose-dependent increases”, the “PWD80cF (in words)” value is reported as “prolonged; also recorded: dose-dependent increases”, the “membrane potential duration (in words)” value is “increase” and the “Beat Rate” value is on record as “↓”. Also, in data set [3], the “Falling Slope” value was “↓”, the PWD80cF result was “↑”, the “Rising Slope” value was “↓” and the “beating rate (in words)” value is “dose-dependent decrease”. In data set [3], the “falling slope … (in words)” value is listed as “dose-dependent decrease” and the “rising slope … (in words)” value is listed as “dose-dependent decrease”. Besides, in data set [4], the “PWD30-80 (in words)” value was “prolonged; also recorded: dose-dependent increases”, the “PWD80cF (in words)” value is “prolonged; also recorded: dose-dependent increases”, the “membrane potential duration (in words)” value is on record as “increase” and the “Falling Slope” value is given as “↓”. In data set [4], the PWD30cF entry was “↓”, the PWD80cF entry is recorded as “↑”, the “Rising Slope” value is given as “↓” and the “beating rate (in words)” value is given as “dose-dependent decrease”. In data set [4], the “falling slope … (in words)” value was “dose-dependent decrease” and the “rising slope … (in words)” value is recorded as “dose-dependent decrease”.

Turning to `CC(C)NCC(O)COc1cccc2ccccc12` (stereo not drawn) [Propranolol], in data set [3], the “PWD30-80 (in words)” value is recorded as “prolonged”, the “PWD80cF (in words)” value is “prolonged”, the “Beat Rate” value is recorded as “↓” and the “Falling Slope” value was “↓”. For the same molecule, in data set [3], the PWD80cF result was “↑”, the “Rising Slope” value is on record as “↓”, the “beating rate (in words)” value is recorded as “dose-dependent decrease” and the “falling slope … (in words)” value is listed as “dose-dependent decrease”. Moreover, the “rising slope … (in words)” value in data set [3] is recorded as “dose-dependent decrease”. Also, the “incidence … irregular beat” value in data set [3] (10 μM) is listed as 11%. Moreover, the “irregular beating (samples)” value in data set [3] (10 μM, count of samples) is listed as 1 out of 9. Further, the “incidence … arrest” value in data set [3] (30 μM) is reported as 100%. Also, in data set [3] (100 μM), the “incidence … arrest” value was determined as 100%. In addition, in data set [4], the “PWD30-80 (in words)” value is recorded as “prolonged”, the “PWD80cF (in words)” value is “prolonged”, the “concentration at which irregular beating or EAD appeared” value is “above 10 μM” and the “Falling Slope” value is “↓”. Also, in data set [4], the PWD30cF result is “↓”, the PWD80cF result is “↑”, the “Rising Slope” value was “↓” and the “beating rate (in words)” value was “dose-dependent decrease”. For the same molecule, in data set [4], the “falling slope … (in words)” value is reported as “dose-dependent decrease” and the “rising slope … (in words)” value is “dose-dependent decrease”. In data set [4] (10 μM), the “incidence of arrhythmia-like waveforms: EAD” value is listed as 25% and the “incidence … irregular beat” value was 17%. For the same molecule, in data set [4] (30 μM), the “incidence of arrhythmia-like waveforms: EAD” value turned out to be 42%, the “incidence … arrest” value stood at 17% and the “incidence … irregular beat” value came out at 8%. Also, in data set [4] (100 μM), the “incidence … arrest” value was 100%.

Turning to `CC1=C(/C=C/C(C)=C/C=C/C(C)=C/C(=O)O)C(C)(C)CCC1` [RA, retinoic acid], in data set [5] (AM (RA-treated hiPS-CMs)), the MLC-2a positive cells worked out at 83.4 ± 0.63% and the MLC-2v positive cells stood at 14.0 ± 2.82%. Also, the “proportion of cTnT-positive cells” value in data set [5] (AM (RA-treated hiPS-CMs), 0.7 μM RA day 4-7, n = 3) is 96.79 ± 1.81% and 96.8 ± 1.81%. Further, the “cardiomyocyte differentiation efficiency (in words)” value in data set [5] (with vs without RA) was “did not influence cardiomyocyte differentiation efficiency”.

Turning to `COc1ccc(CCN(C)CCCC(C#N)(c2ccc(OC)c(OC)c2)C(C)C)cc1OC` (stereo not drawn) [Verapamil], in data set [3], the “other parameters of membrane potential (in words)” value is “no obvious changes were observed”, the “Beat Rate” value is recorded as “↑” and the “beating rate (in words)” value was “dose-dependent increase”. For the same molecule, the “incidence … arrest” value in data set [3] (0.1 μM) turned out to be 100%. Further, in data set [3] (0.1 μM doses), the “cessation of beating (samples)” value is “all the AM samples”. Further, the “arrest of spontaneous beating (samples)” value in data set [3] (at the maximal concentration) was “all the tested samples”. In data set [4], the “membrane potential duration (in words)” value was “decreased”, the “Falling Slope” value is recorded as “↑”, the PWD30cF result is on record as “↓” and the PWD80cF result is “↓”. In data set [4], the “Rising Slope” value is recorded as “↓”, the “beating rate (in words)” value is “dose-dependent increases” and the “falling slope … (in words)” value is “dose-dependent increases”.
